Assay results reported in US4489062A, “Pharmaceutical compounds, preparation, use and intermediates therefor and their preparation” (priority 1982, dated 1984).
Where a SMILES comes first, the peptide text is derived from it. [ ]: non-standard residue; d: D form. Phe(4-NO2) = N[C@@H](Cc1ccc([N+](=O)[O-])cc1)C(=O)O

Assays:
Type in all cases: in vivo
female CD1 mice [1] = assay: Irritant-induced writhing test, phenylbenzoquinone (PBQ); settings: s.c. 15 mins. prior to PBQ 2.5 mg/kg, Ex. compounds calculated as the peptide per se; for ED50: Mus musculus, 0.25 h
Source text: (§1) (1) Both the hotplate test (Woolfe and MacDonald, J. Pharmacol. Exp. Ther. 80:300, 1944) and the irritant-induced writhing (stretch) test (Vander Wende and Margolin, Fed. Proc. 15:494, 1956) are standard in the art for the investigation of analgesic activity. Whereas it is believed that the pain in the latter can be ameliorated either centrally or peripherally, it is thought that that induced in the hotplate test is affected only at the central level.
(§2) (i) Acetic Acid. Groups of five female CD1 mice (Charles River) received either a test compound or saline vehicle (0.85%) control by subcutaneous injection 15 mins. (unless otherwise indicated) prior to an intraperitoneal injection of 0.6% acetic acid at a dose volume of 25 ml/kg. After a further 20 mins. the writhing or stretching movements induced by the irritant were counted over a 21/2 min. period, a writhe/stretch being identified as an extension of a hindlimb accompanied by constriction of the abdomen.
(ii) Phenylbenzoquinone (PBQ). This test was carried out in a parallel manner to that employing acetic acid, […], except that the period over which the writhing/stretching movements were counted began 10 mins. after administration of the PBQ irritant, the latter being given at a dosage of 2.5 mg/kg and in a dose volume of 10 ml/kg.
(§3) The ED50 figures for the test compounds were calculated, using linear regression analysis, as the dose in the presence of which only half the number of writhes/stretches was induced compared with the controls.

female CD1 mice [2] = assay: Irritant-induced writhing test, acetic acid; settings: s.c. 15 mins. prior to i.p. 0.6% acetic acid, Ex. compounds calculated as the peptide per se; for ED50: Mus musculus, 0.25 h
Source text: as §1, §2, §3

Male mice (CFLP strain) = assay: Hotplate test; settings: 55° C. hotplate, 15 mins. after treatment, reaction time twice the pretreatment figure, Ex. compounds calculated as the peptide per se; for ED50: Mus musculus, sc
Source text: as §1
Male mice (CFLP strain, Hacking and Churchill) were individually placed in a copper-bottomed perspex box suspended in a water bath at 55° C. and observed for signs of discomfort such as shaking or licking the paws, the reaction time (up to a maximum of 30 secs.) being recorded. Groups of five animals then received either a test compound or saline vehicle (0.85%) control by subcutaneous injection, the test being repeated at 15 mins. after treatment. The ED50 figures for the test compounds were calculated from the number of animals having a posttreatment reaction time which was twice the pretreatment figure.

male TFW mice = assay: Antagonism by quaternary opioid (N-methylnalorphine) in acetic acid writhing test; settings: for ED50: Mus musculus, 20 min, read-out: ED50 (mg/kg, s.c.) Saline control (b); for ED50 / ED50 (mg/kg, s.c.) Saline control (b): acetic acid writhing, saline i.p. 20 mins. before test compound s.c., Ex. compounds calculated as the peptide per se; for Dose ratio (a):(b): ratio of equiactive doses in presence and absence of N-methylnalorphine, calculated from the linear regression of the dose/response curves
Source text: (3) The analgesia induced by the peptides in the writhing test upon peripheral (parenteral) administration is antagonised by parenteral administration of the quaternary opioid antagonist N-allyl-normorphine methiodide (N-methylnalorphine; Koczka et al, Acta Chim. Acad. Sci. Hung. 51:393, 1967), i.e. a higher dose of the peptide is required in the presence than in the absence of the opioid for the same effect. As penetration of the blood-brain barrier by the quaternary compound is minimal (c.f. Tavani et al, European J. Pharmacol. 59:151-154, 1979) both the peptide-induced analgesia and the antagonism thereof are effected at the peripheral level.
Groups of six male TFW mice (Tuck) received by intraperitoneal injection either N-methylnalorphine (16 mg/kg) or saline vehicle (0.85%) control at a volume of 10 ml/kg followed after 20 mins. by a solution of the test compound in saline (10 ml/kg, subcutaneous) and after a further 30 mins. by 0.6% acetic acid (25 ml/kg, intraperitoneal). The total number of writhes/stretches per group was then determined over the 5 min. period commencing 15 mins. after administration of the acetic acid. Using linear regression analysis the ED50 figures for the test compounds were calculated (defined as in (B) supra) together with the dose ratios therefor, i.e. the ratios of the dose of compound required for equiactive antinociceptive effect in respectively the presence and the absence of the quaternary compound.

rats = assay: Toxicology, 14-day subcutaneous administration, rats; settings: rat; s.c. daily for 14 days at 7.5, 15 or 30 mg/kg per day (as peptide per se)
Procedure: (§4) The diacetate product of Example 1 was administered subcutaneously to rats and marmosets as a solution in 0.85% (w/w) saline at a volume of 0.1 ml/100 g bodyweight. For each species the compound was given daily for 14 days at a dose (calculated as the peptide per se) selected from 7.5, 15 and 30 mg/kg bodyweight per day.

Female Cobs Wistar rats = assay: Antidiarrhoeal activity (castor oil-induced diarrhoea); settings: calculated as the peptide per se; for ED50 (mg/kg, s.c.) antidiarrhoeal, 1.5 hrs.: 1.5 hrs. post castor oil; for ED50 (mg/kg, s.c.) antidiarrhoeal, 2.0 hrs.: 2.0 hrs. post castor oil; for ED50 (mg/kg, s.c.) antidiarrhoeal, 3.0 hrs.: 3.0 hrs. post castor oil
Procedure: Female Cobs Wistar rats (Charles River) were starved for 24 hours prior to subcutaneous administration of the test compound as a solution in 0.85% (w/w) saline and at a volume of 10 ml/kg. Fifteen minutes after the compound each rat received 1 ml. castor oil given orally and the animals were then observed for the appearance of diarrhoea.

guinea pigs = assay: Antitussive activity (citric acid aerosol-induced cough); settings: s.c. 30 minutes before 30% citric acid aerosol; calculated as the peptide per se; 95% confidence limits 0.04-2.6 mg/kg
Procedure: In this test procedure, a modification of that described by Boura et al., Br. J. Pharmac., 39/1 (1970) 225, guinea pigs were subjected to an aerosol containing 30% citric acid, 30 minutes after subcutaneous administration of test compound as a solution in 0.85% (w/w) saline, and the number of coughs during a 121/2-minute exposure counted.

marmosets = assay: Toxicology, 14-day subcutaneous administration, marmosets; settings: s.c. daily for 14 days at 7.5, 15 or 30 mg/kg per day (as peptide per se)
Procedure: as §4

| Compound | ED50 (female CD1 mice [1]) [mg/kg] | ED50 (female CD1 mice [2]) [mg/kg] | ED50 (Male mice (CFLP strain)) [mg/kg] | ED50 (male TFW mice) [mg/kg] | Dose ratio (a):(b) (male TFW mice) | toxicity attributable to the compound (rats) | ED50 (mg/kg, s.c.) antidiarrhoeal, 1.5 hrs. (Female Cobs Wistar rats) [mg/kg] | ED50 (mg/kg, s.c.) antidiarrhoeal, 2.0 hrs. (Female Cobs Wistar rats) [mg/kg] | ED50 (mg/kg, s.c.) antidiarrhoeal, 3.0 hrs. (Female Cobs Wistar rats) [mg/kg] | ED50 (mg/kg, s.c.) PBQ writhing (female CD1 mice [1]) [mg/kg] | ED50 (mg/kg, s.c.) Acetic acid writhing (female CD1 mice [2]) [mg/kg] | ED50 (mg/kg, s.c.), hotplate test (Male mice (CFLP strain)) [mg/kg] | ED50 (mg/kg, s.c.) Saline control (b) (male TFW mice) [mg/kg] | ED50 (dose required to reduce the number of coughs by 50%) (guinea pigs) [mg/kg] | clinical signs observed (marmosets) |
| --- | --- | --- | --- | --- | --- | --- | --- | --- | --- | --- | --- | --- | --- | --- | --- |
| CCC(=O)O[C@](Cc1ccccc1)(c1ccccc1)[C@H](C)CN(C)C [Dextropropoxyphene, reference compound] | 2.6 | 4.2 | 25.9 | 6.8 | 1.0 | – | – | – | – | – | – | – | – | – | – |
| N=C(N)NCCC[C@@H](NC(=O)[C@@H](N)Cc1ccc(O)cc1)C(=O)NCC(=O)N[C@@H](Cc1ccc([N+](=O)[O-])cc1)C(=O)N1CCC[C@H]1C(N)=O [Ex. 1, H--Tyr--D--Arg--Gly--Phe(4--NO2)--Pro.NH2 diacetate] (H-Y[dR]G[Phe(4-NO2)]P-NH2) | – | – | – | – | 4.1 | No toxicity attributable to the compound was seen | 0.79 | 3.19 | 54.9 | 4.0 | 4.3 | 94.8 | 4.6 | 0.26 | transient post-dose vomiting and salivation at 30 mg/kg and to a lesser extent at the lower doses |
| COc1ccc2c(c1)c(CC(=O)O)c(C)n2C(=O)c1ccc(Cl)cc1 [Indomethacin, reference compound] | 0.9 | – | > 100 | – | – | – | – | – | – | – | – | – | – | – | – |
| CN1CC[C@]23c4c5ccc(O)c4O[C@H]2[C@@H](O)C=C[C@H]3[C@H]1C5 [Morphine, reference compound] | 0.38 | – | 1.8 | 0.4 | – | – | – | – | – | – | – | – | – | – | – |
| CC(C)=CCN1CCC2(C)c3cc(O)ccc3CC1C2C (stereo not drawn) [Pentazocine, reference compound] | – | 2.3 | > 100 | – | – | – | – | – | – | – | – | – | – | – | – |
| H--Tyr--D--Met(Me)--Gly--Phe(4NO2)--Pro.NH2 chloride, hydrochloride [Ex. 2] | – | – | – | – | 3.3 | – | 0.16 | 0.89 | 8.61 | 4.6 | 1.2 | 129.5 | 1.5 | – | – |
| N--AmidinoTyr--D--Met(Me)--Gly--Phe(4NO2)--Pro.NH2 chloride, hydrochloride [Ex. 4] | – | – | – | – | 4.2 | – | 0.07 | 0.14 | 0.84 | 1.0 | 0.6 | 43.8 | 0.7 | – | – |
